Test results published in article PMC10350924, “Design, Synthesis, and Pharmacological Characterization of a Potent Soluble Epoxide Hydrolase Inhibitor for the Treatment of Acute Pancreatitis” (Journal of Medicinal Chemistry, 2023).

How the values were obtained:
[1] = target: T1, Human recombinant sEH (Homo sapiens, UniProt P34913); test: Cell-free sEH activity (PHOME fluorescence); type: biochemical; conditions: human isolated sEH
T1 construct: made in house; host or cells: Sf9 insect cells (recombinant baculovirus)
T1 sequence (P34913 1-555): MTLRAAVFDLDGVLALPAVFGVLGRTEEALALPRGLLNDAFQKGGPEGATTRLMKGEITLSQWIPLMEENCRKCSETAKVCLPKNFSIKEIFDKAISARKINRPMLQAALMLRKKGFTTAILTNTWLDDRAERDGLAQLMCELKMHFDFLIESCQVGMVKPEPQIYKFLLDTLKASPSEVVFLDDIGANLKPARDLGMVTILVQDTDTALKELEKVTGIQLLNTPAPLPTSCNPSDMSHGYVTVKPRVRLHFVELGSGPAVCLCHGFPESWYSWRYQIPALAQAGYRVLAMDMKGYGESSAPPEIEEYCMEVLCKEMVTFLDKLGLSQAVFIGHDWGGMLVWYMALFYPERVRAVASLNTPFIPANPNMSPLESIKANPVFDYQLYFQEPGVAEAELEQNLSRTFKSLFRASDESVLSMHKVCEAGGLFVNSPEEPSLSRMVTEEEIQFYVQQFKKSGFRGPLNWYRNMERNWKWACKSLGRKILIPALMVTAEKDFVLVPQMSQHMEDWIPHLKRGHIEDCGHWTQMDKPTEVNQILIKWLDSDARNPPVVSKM
Procedure: Human recombinant sEH was expressed in Sf9 insect cells and purified by affinity chromatography. […] Elution with 4-fluorochalcone oxide in PBS pH 7.4 with 1 mM dithiothreitol and 1 mM EDTA yielded sEH, which was dialyzed and concentrated. Purified sEH (60 ng) in 25 mM Tris HCl pH 7 with 0.1 mg/mL bovine serum albumin (BSA) was preincubated with the vehicle (DMSO) or test compounds for 1 min at room temperature. The sEH substrate PHOME (20 μM, Cayman Chemicals) was added to start the enzymatic reaction, which was stopped after 60 min in the dark by the addition of ZnSO4 (200 mM).

[2] = target: T2, 5-LOX (Homo sapiens, UniProt P09917); test: Cell-free 5-LOX activity assay; type: biochemical; set-up: made in house; host or cells: Escherichia coli Bl21 (DE3); conditions: human isolated 5-LOX
T2 sequence (P09917 1-674): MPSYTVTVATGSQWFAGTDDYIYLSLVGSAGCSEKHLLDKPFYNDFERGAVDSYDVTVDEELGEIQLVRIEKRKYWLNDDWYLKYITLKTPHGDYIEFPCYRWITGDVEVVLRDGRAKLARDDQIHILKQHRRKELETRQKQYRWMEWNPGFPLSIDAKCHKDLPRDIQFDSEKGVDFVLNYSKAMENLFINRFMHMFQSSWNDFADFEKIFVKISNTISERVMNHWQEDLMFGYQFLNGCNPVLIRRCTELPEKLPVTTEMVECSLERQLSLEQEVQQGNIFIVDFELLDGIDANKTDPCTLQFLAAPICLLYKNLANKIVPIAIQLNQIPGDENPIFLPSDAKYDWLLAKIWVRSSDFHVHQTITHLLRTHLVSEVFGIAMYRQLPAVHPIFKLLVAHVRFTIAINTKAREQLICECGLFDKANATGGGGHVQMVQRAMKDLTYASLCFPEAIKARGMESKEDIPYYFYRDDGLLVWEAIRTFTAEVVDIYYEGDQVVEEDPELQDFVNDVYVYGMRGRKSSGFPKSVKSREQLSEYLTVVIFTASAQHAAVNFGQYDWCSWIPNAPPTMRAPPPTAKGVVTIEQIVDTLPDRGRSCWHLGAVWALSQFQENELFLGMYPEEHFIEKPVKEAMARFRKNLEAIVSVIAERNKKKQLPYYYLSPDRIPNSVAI
Procedure: Human recombinant 5-LOX was expressed in Escherichia coli Bl21 (DE3) cells that were transformed with the plasmid pT3-5LO (wt 5-LOX) and purified on an adenosine triphosphate (ATP)-agarose column by affinity chromatography.[40],[41] In a first step, E. coli was lysed in 50 mM triethanolamine/HCl pH 8.0 with ethylenediamine tetraacetic acid (EDTA) (5 mM), soybean trypsin inhibitor (60 μg/mL), phenylmethanesulfonyl fluoride (1 mM), dithiothreitol (1 mM), and lysozyme (1 mg/mL) and sonicated 3 times for 15 s. The homogenate was centrifuged at 40,000g for 20 min at 4 °C. The supernatant was transferred to an ATP-agarose column (Sigma-Aldrich, Deisenhofen, Germany), which was sequentially washed with phosphate-buffered saline (PBS) pH 7.4, 1 mM EDTA, 50 mM phosphate buffer pH 7.4, 0.5 M NaCl, 1 mM EDTA, and finally 50 mM phosphate buffer pH 7.4 plus 1 mM EDTA. The enzyme was eluted with 50 mM phosphate buffer pH 7.4, 1 mM EDTA, and 20 mM ATP.
5-LOX product formation was started by the addition of 20 μM arachidonic acid (Sigma-Aldrich) and CaCl2 (2 mM) and stopped by the addition of an equal volume of ice-cold methanol containing PGB1 (200 ng) as internal standard after 10 min at 37 °C.

| IC50 [1] [nM] | IC50 [2] [nM] | SMILES |
| --- | --- | --- |
| 1.75 ± 0.593 | > 1000 | O=C(NCC12C[C@H]3C[C@@H](C1)C[C@@H](C2)C3)Nc1ccc2c(ccn2Cc2ccc(F)cc2)c1 [Compound 27, 1-(((3R,5R,7R)-Adamantan-1-yl)methyl)-3-(1-(4-fluorobenzyl)-1H-indol-5-yl)urea] |
| 7.22 ± 1.11 | 71 ± 16 | O=C(Nc1ccc2c(c1)CCN2Cc1ccc(F)cc1)NC12C[C@H]3C[C@@H](C1)C[C@@H](C2)C3 [Compound 6, 1-((3S,5S,7S)-Adamantan-1-yl)-3-(1-(4-fluorobenzyl)indolin-5-yl)urea] |
| 1.1 ± 0.4 | > 1000 | O=C(NCC12C[C@H]3C[C@@H](C1)C[C@@H](C2)C3)Nc1ccc2c(ccn2CCc2ccc(F)cc2)c1 [Compound 30, 1-(((3R,5R,7R)-Adamantan-1-yl)methyl)-3-(1-(4-fluorophenethyl)-1H-indol-5-yl)urea] |
| 2.6 ± 0.4 | > 1000 | O=C(NCC12C[C@H]3C[C@@H](C1)C[C@@H](C2)C3)Nc1ccc2c(ccn2C(=O)c2ccc(F)cc2)c1 [Compound 36, 1-(((3R,5R,7R)-Adamantan-1-yl)methyl)-3-(1-(4-fluorobenzoyl)-1H-indol-5-yl)urea] |

| SMILES | IC50 [1] [nM] | IC50 [2] [nM] |
| --- | --- | --- |
| CC(C)c1ccc(Cn2ccc3cc(NC(=O)NCC45C[C@H]6C[C@@H](C4)C[C@@H](C5)C6)ccc32)cc1 [Compound 28, 1-(((3R,5R,7R)-Adamantan-1-yl)methyl)-3-(1-(4-isopropylbenzyl)-1H-indol-5-yl)urea] | 2 ± 1.1 | > 1000 |
